Data as given in patent publication US10118947B2, “Modulation of structured polypeptide specificity” (BICYCLE THERAPEUTICS LIMITED, priority 2013, dated 2018).
Like-named read-outs stand apart in the source and are kept apart here. Numbered stars: 1 amine (or outer) side, 2 acyl side, 3 side chain; on linkers, the order of the positions; unused ones are H or OH. Bridge positions count the residues as written; N and C are the ends. Square brackets hold non-standard residues; d marks the D form. Peptide text beside a SMILES is read from it. Phe(4-guanidino) = N=C(N)Nc1ccc(C[C@H](N)C(=O)O)cc1; TBMB = c1c(C[*:1])cc(C[*:3])cc1C[*:2]; NMeR = CN[C@@H](CCCNC(=N)N)C(=O)O; hArg = N=C(N)NCCCC[C@H](N)C(=O)O

Experiments:
human plasma Kallikrein [1] = molecular target: T1, human plasma Kallikrein (Homo sapiens, UniProt P03952); assay: Phage binding assay of individual clones, homogeneous plate-based binding to biotinylated human plasma Kallikrein; conditions: for BINDING ASSAY SIGNAL: Table 19, fixed WPAR motif library, selection output clones
T1 construct: purchased Stratech, UK
T1 sequence (P03952 20-638): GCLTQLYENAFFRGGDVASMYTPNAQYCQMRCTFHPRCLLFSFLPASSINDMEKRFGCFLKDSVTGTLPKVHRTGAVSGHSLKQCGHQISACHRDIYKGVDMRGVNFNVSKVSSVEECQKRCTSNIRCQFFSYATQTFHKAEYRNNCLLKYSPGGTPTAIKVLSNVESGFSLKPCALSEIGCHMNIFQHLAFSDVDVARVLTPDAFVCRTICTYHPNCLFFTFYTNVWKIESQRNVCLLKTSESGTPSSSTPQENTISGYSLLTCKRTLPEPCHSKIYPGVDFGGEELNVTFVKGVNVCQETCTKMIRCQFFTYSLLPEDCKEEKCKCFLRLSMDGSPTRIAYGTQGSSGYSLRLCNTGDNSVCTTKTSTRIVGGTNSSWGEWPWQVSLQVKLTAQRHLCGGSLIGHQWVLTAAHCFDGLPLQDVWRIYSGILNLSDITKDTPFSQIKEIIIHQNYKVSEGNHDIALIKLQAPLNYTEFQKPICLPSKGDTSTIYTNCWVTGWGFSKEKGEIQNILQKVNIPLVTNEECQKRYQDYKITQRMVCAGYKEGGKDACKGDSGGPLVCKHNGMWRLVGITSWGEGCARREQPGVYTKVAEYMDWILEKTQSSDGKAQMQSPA
Description: Library transformant colonies were picked at random and grown as individual cultures in 2TY broth containing selective antibiotic. The picked colonies were DNA-sequenced using a QIAgen PyroMark Q96 DNA sequencer to reveal the amino-acid substitution present in each clone. Where isolated, a clone of each unique substitution was assayed for human plasma Kallikrein binding as follows. The phage-containing supernatant was harvested from the culture and phage were cyclised with tris bromomethyl benzene(TBMB) based on the methods of Heinis et al (Nature Chemical Biology vol. 5 pp 502-507 (2009)). The purified phage from this process were assayed for binding to biotinylated human plasma Kallikrein using a homogeneous plate-based binding assay; assay read-out measured on a BMG Labtech Pherastar FS plate reader. The quantitative binding data from triplicate assay samples was averaged (mean) and expressed as signal:background (where background was a sample assayed with no target material). The signal:background was expressed as a % of the parallel parent sample. Error bars denote standard deviation of the mean. Assays shown are representative of at least 2 independent experiments. The assay data was correlated with the peptide sequences. Substitutions marked in grey were not tested (a clone was not isolated from the random library sampling). A sample of a non-binding (arbitrary) bicycle was assayed in parallel to illustrate the assay baseline.
Library transformant colonies, or selection output colonies, were picked and grown as individual cultures in 2TY broth containing selective antibiotic. The picked colonies were DNA-sequenced using a QIAgen PyroMark Q96 DNA sequencer to reveal the amino-acid substitution present in each clone, and were assayed for human plasma Kallikrein binding as follows. The phage-containing supernatant was harvested from the culture and phage were cyclised with tris bromomethyl benzene (TBMB) based on the methods of Heinis et al (Nature Chemical Biology vol. 5 pp 502-507 (2009)). The purified phage from this process were assayed for binding to biotinylated human plasma Kallikrein using a homogeneous plate-based binding assay; assay read-out measured on a BMG Labtech Pherastar FS plate reader. The quantitative binding data from duplicate assay samples was averaged (mean) and expressed as signal:background. Assay data shown is representative of at least 2 independent experiments. The assay data was correlated with the peptide sequences.

human plasma Kallikrein [2] = molecular target: T1, human plasma Kallikrein; assay: Phage selections against human plasma Kallikrein (abundance in selection output); format: binding; conditions: Table 17; relative abundance in the total selection outputs
Description: Glycerol stocks of phage libraries were diluted to OD600=0.1 in 500 ml 2YT/chloramphenicol (30 μg/ml) cultures and phage were produced at 30° C. over night (15-16 hrs). Phage were purified and chemically modified as described in Heinis, et al., Nat Chem Biol 2009, 5 (7), 502-7 Biotinylated hPK (3 μg) (IHPKA, from human plasma, Innovative Research, Novi, Mich., USA) was incubated with 50 μl pre-washed magnetic streptavidin beads (Dynal, M-280 from Invitrogen, Paisley, UK) for 10 minutes at RT. Beads were washed 3 times prior to blocking with 0.5 ml washing buffer (10 mM Tris-Cl, pH 7.4, 150 mM NaCl, 10 mM MgCl2, 1 mM CaCl2) containing 1% BSA and 0.1% Tween 20 for 30 minutes at RT with rotation. […] Blocked beads were then mixed with the blocked chemically modified phage and incubated for 30 minutes on a rotating wheel at
RT. Beads were washed 8 times with washing buffer containing 0.1% Tween 20 and twice with washing buffer before incubation with 100 μl of 50 mM glycine, pH 2.2 for 5 minutes. Eluted phage were transferred to 50 μl of 1 M Tris-Cl, pH 8 for neutralization, incubated with 30 ml TG1 cells at OD600=0.4 for 90 minutes at 37° C. and the cells were plated on large 2YT/chloramphenicol plates. One or two additional rounds of panning were performed using the same procedures. In the second round of selection, neutravidin-coated magnetic beads were used to prevent the enrichment of streptavidin-specific peptides. The neutravidin beads were prepared by reacting 0.8 mg neutravidin (Pierce, Rockford, Ill., USA) with 0.5 ml tosyl-activated magnetic beads (Dynal, M-280 from Invitrogen, Paisley, UK) according to the supplier's instructions.
The WPAR (SEQ ID No. 19) motif identified from Example 1 was analysed in the context of the 06-34-03 peptide, in order to identify alternatives or improvements to the WPAR motif. A library was constructed where positions 1, 6, 7, 8, 9 &10 of 06-34-03 were fixed and positions 2, 3, 4 & 5 were randomised (see ‘Randomisation of peptide domains—Library construction’ in Methods above). Selections against human plasma Kallikrein were performed at a variety of stringencies (see Phage selections' in Methods above). All output sequences were identified and analysed for target binding (see ‘Randomisation of peptide domains—Assay of binding of individual clones’ in Methods above). Table 17 lists each unique sequence, its relative abundance in the selection output (frequency), and a rank number according to target binding strength.

[3] = Table 1; Method #3; cited from earlier work
[4] = Quantitative plasma stability Method #3 (LC-MS, 95% plasma), rat plasma; format: in vitro ADME
Description: (§1) To obtain plasma stability quantitatively, peptide stock solutions (1 mM in DMSO) were shipped to Biofocus, UK, who performed the analysis. Peptides were diluted to 100 uM with water, and diluted 1:20 in plasma (5 uM final concentration, with the plasma at 95%), sampled as appropriate, precipitated as above, and quantified using a Waters Xevo TQ-MS.

[5] = Quantitative plasma stability Method #3 (LC-MS, 95% plasma), human plasma; format: in vitro ADME; conditions: human plasma (95%), Table 2, ex vivo human plasma, read-out: Human Plasma Stability (t½ in hrs) (converted)
Description: as §1

rat plasma Kallikrein = molecular target: T2, rat plasma Kallikrein (Rattus norvegicus, UniProt P14272); conditions: Table 1; read-out: Ki (nM) (rat kallikrein); cited from earlier work
T2 construct: polyhistidine tag (N, cleaved yes); proTEV cleavage site (pro-peptide linker) (N, cleaved yes); made in house; host or cells: HEK-293 (suspension-adapted)
T2 sequence (P14272 391-638 limits assumed): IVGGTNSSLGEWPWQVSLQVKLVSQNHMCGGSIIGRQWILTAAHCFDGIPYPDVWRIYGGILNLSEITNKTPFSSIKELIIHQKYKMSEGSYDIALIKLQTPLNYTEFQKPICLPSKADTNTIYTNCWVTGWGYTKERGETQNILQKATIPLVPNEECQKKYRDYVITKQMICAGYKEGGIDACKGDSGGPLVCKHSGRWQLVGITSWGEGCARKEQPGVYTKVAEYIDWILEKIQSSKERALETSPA

[6] = Table 1; Method #1; cited from earlier work
[7] = Plasma stability profiling Method #1 (MALDI-TOF, 35% plasma), rat plasma; format: in vitro ADME; conditions: Table 23; comparative stabilities estimated according to method #1
Method in brief: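 Qualitative test: 200 µM peptide incubated at 37 °C in 35% rat or human citrated plasma supplemented with PBS, sampled at 0, 3, 24 h then daily up to 10 days. Parent mass tracked by MALDI-TOF; value is time until parent peptide no longer detectable.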

human plasma Kallikrein [8] = molecular target: T1, human plasma Kallikrein; assay: Functional enzyme inhibition assay with fluorogenic substrate Z-PheArg-AMC, human plasma Kallikrein; format: biochemical; conditions: Table 2; read-out: Ki (nM) human Kai
Method in brief: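 Rates of AMC release (excitation 360 nm, emission 460 nm) from 100 μM final Z-PheArg-AMC, 4% DMSO, were taken over the linear phase, typically 5 to 45 minutes. IC50 from four-parameter non-linear regression; Ki also derived.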

[9] = rat plasma (95%), Table 2, ex vivo rat plasma, Method #3, read-out: Rat Plasma Stability (t½ in hrs) (converted)

Row | Compound | t1/2 (hrs) in rat plasma [3] [h] | half-life at 5 uM [4, 9] [h] | half-life at 5 uM [5] [h] | Ki (rat plasma Kallikrein) [nM] | Observable in rat plasma, for days [6] [days] | Observable in rat plasma, for days [7] [days] | BINDING ASSAY SIGNAL (human plasma Kallikrein [1]) | further results
1 | CSWPYHCTHQDLC |  |  |  |  |  |  |  | RANK (human plasma Kallikrein [1]; Table 17, rank according to Kallikrein binding, positions 2-5 of 06-34-03 randomised): 39; FREQUENCY (human plasma Kallikrein [2]): 1
2 | CC(=O)N[C@H]1CSCc2cc3cc(c2)CSC[C@H](NC(=O)[C@H](CCCCNC(=N)N)NC(=O)[C@H](Cc2ccc(O)cc2)NC(=O)[C@@H]2CCCN2C(=O)[C@H](Cc2ccccc2)NC(=O)[C@H](CO)NC1=O)C(=O)N[C@@H](CC(C)C)C(=O)N[C@@H](Cc1c[nH]cn1)C(=O)N[C@@H](CCC(N)=O)C(=O)N[C@@H](CC(=O)O)C(=O)N[C@@H](CC(C)C)C(=O)N[C@H](C(N)=O)CSC3 [Ac-(06-34-18) Phe2 Tyr4 HomoArg5] (Ac-CSFPY[hArg]CLHQDLC-NH2; linker 1-7-13 via TBMB) | 12.2 | 12.2 | 2.1 | 16.2 | >10 | >10 |  | t1/2 (hrs) in rat plasma ([4]; Table 23, method #3): 12.2 h; rat plasma stability enhanced by a factor ([4]; compared to parent Phe2 Tyr4 peptide): 13
3 | CC(=O)N[C@H]1CSCc2cc3cc(c2)CSC[C@H](NC(=O)[C@H](Cc2ccc(NC(=N)N)cc2)NC(=O)[C@H](Cc2ccc(O)cc2)NC(=O)[C@@H]2CCCN2C(=O)[C@H](Cc2ccccc2)NC(=O)[C@H](CO)NC1=O)C(=O)N[C@@H](CC(C)C)C(=O)N[C@@H](Cc1c[nH]cn1)C(=O)N[C@@H](CCC(N)=O)C(=O)N[C@@H](CC(=O)O)C(=O)N[C@@H](CC(C)C)C(=O)N[C@H](C(N)=O)CSC3 [Ac-(06-34-18) Phe2 Tyr4 4GuanPhe5] (Ac-CSFPY[Phe(4-guanidino)]CLHQDLC-NH2; linker 1-7-13 via TBMB) | 5.0 | 5 | 2.9 | 0.6 | >10 | >10 |  | 
4 | CAWPARCTHDDLC |  |  |  |  |  |  | 84 | 
5 | CQWPARCTHTDLC |  |  |  |  |  |  | 91 | 
6 | CLWPARCLTIELC |  |  |  |  |  |  | 59 | 
7 | CSWPARCTHTDLC |  |  |  |  |  |  | 83 | 
8 | CC(=O)N[C@H]1CSCc2cc3cc(c2)CSC[C@H](NC(=O)[C@H](CCCNC(=N)N)N(C)C(=O)[C@H](Cc2ccc(O)cc2)NC(=O)[C@@H]2CCCN2C(=O)[C@H](Cc2ccccc2)NC(=O)[C@H](CO)NC1=O)C(=O)N[C@@H](CC(C)C)C(=O)N[C@@H](Cc1c[nH]cn1)C(=O)N[C@@H](CCC(N)=O)C(=O)N[C@@H](CC(=O)O)C(=O)N[C@@H](CC(C)C)C(=O)N[C@H](C(N)=O)CSC3 [Ac-(06-34-18) Phe2 Tyr4 NMeArg5] (Ac-CSFPY[NMeR]CLHQDLC-NH2; linker 1-7-13 via TBMB) | >20 | > 20 | 1.7 | 64.3 | >10 | >10 |  | Ki (human plasma Kallikrein [8]): 4 nM; half-life at 5 uM ([4]; rat, plasma, Table 23, method #3, read-out: t1/2 (hrs) in rat plasma (converted)): > 20 h
